Source: patent US20230202980A1, “N-(2-Aminophenyl)-Prop-2-Enamide Derivatives, and Uses Thereof in the Treatment of Cancer” (National University of Singapore, priority 2019, published 2023)
pIC50: −log10 of the molar value.

Tests used:
[1] = tested on: SNU-398 (SALL4 high) cells; assay: SALL4 high/low phenotypic screen (cell viability, CellTiter-Glo), SALL4 high cells; type: cell-based; conditions: for pIC50: Homo sapiens, SNU-398, read-out: IC50 in high SALL4 SNU398 cells; for pIC50 / IC50 in high SALL4 SNU398 cells: SALL4 high/low phenotypic screen, 72 hrs; for fold less potent than the most active compounds: SALL4 high SNU398 cells
Protocol: (§1) SNU-387 empty vector, Tg:SALL4A, and Tg:SALL4B expressing isogenic cell lines were generated by transducing WT SNU-387 cells with empty vector, SALL4A or SALL4B FUW-Luc-mCh-puro lentiviral constructs^1. Cells were plated in 50 µl of RPMI culture media in 384-well white flat-bottom plates (Coming) and incubated at 37° C. in a humidified atmosphere of 5% CO2 overnight. Cell numbers per well were 1500 for SNU-398, and 750 for SNU-387 and SNU-387 isogenic lines. After overnight incubation, varying concentrations of compounds 1-80 were added to cells with multichannel electronic pipettes (Rainin). Cells were then incubated for 72 hrs at 37° C. in a humidified atmosphere of 5% CO2 before 10 µl of CellTiter-Glo reagent was added to the wells with the MultiFlo Microplate Dispenser (BioTek). Cells were incubated at room temperature for a mininuun of 10 minutes after which luminescence readings were recorded by an Infinite M1000 Microplate Reader (Tecan).
This testing was based on SALL4 high/low phenotypic screen as described herein. IC50 values noted for the compounds/groups above are based on ICso in high SALL4 SNU398 cells.
ALPHA assay measures binding between SALL4 and RBBp4, an inhibitor could block the binding and reflected in low reading of the ALPHA assay. FP assay also measures binding between SALL4 and RBBp4, an inhibitor results in […] reading. Cell-based assays are measuring cell viability with different concentration of compounds. Cell based 1299 refers to cell viability assay using H1299 cells; Cell-based SNU387 refers to cell viability assay using SNU387 cells; Cell based assay-SNU-398 refers to cell viability assay using SNU398 cells; Cell based MDA-MB231 refers to cell viability assay using MDA-MB231 cells.

SALL4 1-300 protein = target: T1, SALL4 1-300 protein (Homo sapiens, UniProt Q9UJQ4); assay: Thermal Shift Assay (fluorescence-based binding assay); conditions: SALL4 1-300 with 100 mM compound
T1 sequence (Q9UJQ4 1-300): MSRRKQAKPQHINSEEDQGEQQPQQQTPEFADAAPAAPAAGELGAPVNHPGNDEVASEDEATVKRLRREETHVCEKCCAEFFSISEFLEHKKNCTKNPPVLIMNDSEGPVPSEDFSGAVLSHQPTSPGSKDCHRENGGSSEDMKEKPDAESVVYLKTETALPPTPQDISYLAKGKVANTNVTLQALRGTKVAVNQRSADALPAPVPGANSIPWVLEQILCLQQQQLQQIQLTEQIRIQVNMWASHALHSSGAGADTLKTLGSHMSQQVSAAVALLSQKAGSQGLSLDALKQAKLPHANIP
From the text: In the upper panel of FIG. 7, a fluorescence-based binding assay named Thermal Shift Assay was used to assess the binding of compound 6 to SALL4 1-300 protein based on changes in unfolding transition. […] In the lower panel of FIG. 7, compound 6 binding to SALL4 was accessed by 1H NMR Experiments and Saturation Transfer Difference (STD) using ^15N SALL4 1-300 and Compound 6. The samples were screened using Bruker BioSpin AVANCE II 600 MHz spectrometer equipped with a CPPTCI{ 19F} cryoprobe and SampleJet auto-sampler. Compound 6 weak binding event to SALL4 1-300 was identified based on the increase in transverse relaxation rate (R2) observed in the presence of SALL4 1-300 protein.

SALL4 high tumor = assay: In vivo xenotransplant testing in mice; conditions: treated mice, P<0.05
PAMPA permeability assay = type: in vitro ADME; conditions: 50 µM, pION buffer, 4 hours
From the text: (§2) Pan-HDAC binding assay measures HDAC inhibitory activity of a compound. Tubulin Polymerisation inhibition assays measure inhibition activity of a compound towards tubulin polymerization. SALL4 protein expression down regulation assay changed to western blot analysis, SALL4 RNA expression down regulation assay changed to real-time PCR assay. Permeability assay measures the (PAMPA) measures permeability of a compound across an artificial membrane. The microsomal stability assay measures rate of disappearance of a test compound over time in liver microsomes. In vivo PK assay measures biodistribution of the test compound in mice.
50 µM of Compound 6 prepared in pION buffer was added to bottom of UV plate. GIT-0 solution was added and the solution was incubated for 4 hours. The plate spectrum was read using spectrophotometer in scanning mode from 200 nm to 500 nm using PAMPA pION software.

SALL4 RNA = SALL4 RNA expression down regulation (Q-PCR) in H661 cells; type: cell-based; conditions: 48 hrs
Protocol: Cells were treated with compound 6 at 1 µM and 2.5 µM. Amounts for other cmpds are shown. Cells were harvested at 48 hrs and the cell lysates were subjected to western blot analysis and Q-PCR analysis for SALL4 protein and RNA level respectively. […] As shown in the lower panel of FIG. 6, using Q-PCR, it was shown that SALL4 RNA level was reduced by Compound 6 in H661 cells.

[2] = Pharmacokinetic study, whole blood concentration by LC-MS/MS; type: in vivo, Swiss albino mice
Protocol: Compound 6 was dissolved in water containing 3% DMSO and 10% hydroxyl propyl-b-cyclodextrin (EncapsinTM) for the i.v. dose, and in water containing 5% DMSO and 9.5% Encapsin for the oral dose. Blood samples were collected at 0.083, 0.25, 0.5, 1, 2, 4, 6, 8 and 24 hrs. The whole blood concentration was measured by LC-MS/MS. From the oral route, 90% of compound 6 was cleared at 2 hrs. For the intravenous route, 90% of compound 6 was cleared at 4 hrs.

[3] = tested on: SNU-387 (SALL4 low) cells; assay: SALL4 high/low phenotypic screen (cell viability, CellTiter-Glo), SALL4 low cells; type: cell-based; conditions: Example 1, see FIG. 2
Protocol: as §1
ALPHA assay measures binding between SALL4 and RBBp4, an inhibitor could block the binding and reflected in low reading of the ALPHA assay. FP assay also measures binding between SALL4 and RBBp4, an inhibitor results in […] reading. Cell-based assays are measuring cell viability with different concentration of compounds. […]

[4] = Metabolic stability using liver microsomes; type: in vitro ADME; conditions: 1 µM, 3.33 mg/ml liver microsomes, 2.5 mM NADPH
From the text: as §2
1 µM of compound 6 was incubated with 3.33 mg/ml liver microsomes and 2.5 mM NADPH for 0, 5, 10, 30 and 60 minutes. The mixture were subjected to LC-MS/MS to measure remaining compound after the incubation.

COc1cc(Nc2ncccc2/C=C/C(=O)Nc2ccc(Cl)cc2N)cc(OC)c1OC [drawing 157]
pIC50 [1]: 6.00 to 6.82

COc1cc(Nc2ncccc2/C=C/C(=O)Nc2cc(Cl)c(Cl)cc2N)cc(OC)c1OC
pIC50 [1]: 6.00 to 6.82

Nc1ccc(Cl)cc1NC(=O)c1cccnc1Nc1ccc(F)cc1
IC50 in high SALL4 SNU398 cells [1]: inactive

COc1cc(Nc2ncccc2/C=C/C(=O)Nc2cc(C)ccc2N)cc(OC)c1OC
pIC50 [1]: 6.00 to 6.82

COc1ccc(Nc2ncccc2/C=C/C(=O)Nc2cc(C)ccc2N)cc1
pIC50 [1]: ~5.70 | fold less potent than the most active compounds [1]: about 10 fold

COc1ccc(N)c(NC(=O)/C=C/c2cccnc2Nc2cc(OC)c(OC)c(OC)c2)c1
pIC50 [1]: 6.00 to 6.82

COc1ccc(N)c(NC(=O)/C=C/c2cccnc2Nc2ccc(C(F)(F)F)cc2)c1
pIC50 [1]: ~4.60 | fold less potent than the most active compounds [1]: about 100 fold

COc1cc(Nc2ncccc2/C=C/C(=O)Nc2ccc(Cl)cc2N)cc(OC)c1OC [Cmpd 6]
melting shift (SALL4 1-300 protein): 4.7 °C | xenograft size (SALL4 high tumor): significant (P<0.05) smaller | xenograft weight (SALL4 high tumor): significant (P<0.05) smaller | permeability in PAMPA assay (PAMPA permeability assay): high | SALL4 RNA level (Q-PCR) (SALL4 RNA): reduced | compound cleared from whole blood ([2]; intravenous 5 mg/kg, at 4 hrs): 90% | compound cleared from whole blood ([2]; oral 15 mg/kg, at 2 hrs): 90% | low SALL4 cell inhibition, concentration [3]: high micromolar | status in liver microsome assay (printed: permeability status) [4]: medium | metabolic stability in liver microsomes, %QH ([4]; 0-60 minutes): 45.88 %QH | activity in high SALL4 cells ([1]; Example 1, see FIG. 2): sub-micromolar | selectivity between SALL4 low and SALL4 high cells (FIG. 2) ([1]; SALL4 high vs SALL4 low cells): excellent | EC50 / potency (FIG. 2) ([1]; cell-based screening, SALL4 high cells): excellent

Nc1ccc(F)cc1NC(=O)c1cccnc1Nc1ccc(F)cc1
IC50 in high SALL4 SNU398 cells [1]: inactive
